One may read the IC50 as the concentration needed to halve the response being measured.

Experimental findings from patent US11401274B2, “[1,2,4]Triazolo derivatives as PDE1 inhibitors for the treatment of diabetes” (Eli Lilly and Company, priority 2017, dated 2022) are described below.

Common to all, as to assay type: biochemical
For one test, the target named is human PDE6A/6B (Homo sapiens (Human), UniProt P16499+P35913). The test can be described thus: PDE enzyme assay using [3H]cGMP as substrate, PDE6A/6B. The settings on record: [3H]cGMP 80 nM; enzyme 5 nM; read-out: PDE 6AB IC50 (μM) ± SD (n = number of runs). An excerpt:
(§1) The nucleotide sequences encoding full-length human PDE1A (NP_001003683.1) and PDE1C (NP_005011.1) are inserted into pFastBac1 (Invitrogen) vector with an N-terminal HIS tag. The nucleotide sequences encoding full-length human PDE4D (NP_006194.2) and catalytic domain (residue 641-1141) of PDE3A (NP_000912.3) are inserted into pFastBac1 (Invitrogen) vector with a C-terminal HIS tag. The nucleotide sequences encoding full-length human PDE6A (NP_000431.2) and PDE6B (AAH00249.1) are inserted into pFastBacDual (Invitrogen) vector with an N-terminal HIS tag and N-terminal Flag tag, respectively, for production of PDE6A/6B dimer. Baculovirus generation and protein expression in Sf9 cells are carried out according to the protocol of Bac-to-Bac Baculovirus Expression system (Invitrogen). The nucleotide sequence encoding full-length human PDE1B (NP_000915.1) is inserted into pIEX4 (Novagen) with a C-terminal HIS tag, and both protein productions in Sf9 cells are carried out according to the vendor's protocol (Novagen). The His tagged PDE proteins are purified using Ni-NTA agarose (Qiagen) followed by size exclusion chromatography on a SUPERDEX© 200 column (GE Healthcare) in storage buffer (20 mM Tris-HCl, pH7.5, 150 mM NaCl, 10% Glycerol). The Flag tagged PDE proteins including PDE6A/6B are purified using anti-Flag M2-agarose (Sigma), after purification through NiNTA column chromatography and eluted in storage buffer (50 mM Tris-HCl, pH7.5, 150 mM NaCl, 10% Glycerol, 0.1 mg/ml Flag peptide). All purified proteins are stored at −80° C. in small aliquots.
(§2) All 3′, 5′ cyclic nucleotide phosphodiesterase (PDE) enzyme activities are measured with a radiometric enzyme assay based on SPA detection system (scintillation proximity assay). Compounds to be tested are diluted in pure dimethyl sulfoxide (DMSO) using ten point concentration response curves. Maximal compound concentration in the reaction mixture is either 10 or 100 μM. Compounds at the appropriate concentration are pre-incubated with either of the PDE enzymes for 30 minutes before the reaction is started by the addition of substrate. Reactions are allowed to proceed for 60 minutes at room temperature. Next, reactions are stopped by addition of SPA beads. Samples are read 12 hours later in a MICROBETA™ TRILUX© Counter. “IC50” refers to the concentration of the compound that produces 50% of the maximal inhibitory response possible for that compound. IC50 values are calculated by plotting the normalized data vs. log [compound] and fitting the data using a four parameter logistic equation.
The following phosphodiesterase activities are measured using [3H]cGMP as reaction substrate: human PDE6A/6B. The catalytic active form of human PDE6 is a dimer composed of a α (human PDE6A) and β subunit (human PDE6B). The dimer of human PDE6A/6B is produced by the expression and purification strategy, using two purification steps, i.e., NiNTA and anti-FLAG Sepharose chromatography. The assay buffer is prepared to give a final concentration in the assay of 50 mM Tris-HCl, 8.3 mM MgC2, 1.7 mM EDTA and 0.1% Bovine serum albumin at pH 7.5. The final enzyme concentration is 5 nM. The reactions are started by addition of the substrate, [3H]cGMP, to give a final concentration of 80 nM.

Test [1] deals with human PDE3A (catalytic domain) (Homo sapiens (Human), UniProt Q14432). Put plainly: PDE enzyme assay using [3H]cAMP as substrate, PDE3A. The settings on record: [3H]cAMP 47 nM, enzyme 0.008 nM, read-out: PDE 3A IC50 (μm) ± SD (n = number of runs).
Excerpt: as §1, §2
(§3) The following phosphodiesterase activities are measured using [3H]cAMP as reaction substrate: human PDE3A (catalytic domain) and human PDE4D. Both enzymes are cloned and purified following standard procedures. The assay buffer is prepared to give a final concentration in the assay of 50 mM Tris-HCl, 8.3 mM MgCl2, 1.7 mM ethylenediarninetetraacetic acid (EDTA) and 0.1% Bovine serum albumin at pH 7.5. Final enzyme concentrations are 0.008 and 0.021 nM for PDE3A and PDE4D, respectively. Reactions are started by addition of the substrate, [3H]cAMP, to give a final concentration of 47 nM.

A further test addresses human PDE1A (Homo sapiens (Human), UniProt P54750). Put plainly: Ca2+ calmodulin dependent PDE enzyme assay (SPA, [3H]cAMP), PDE1A. The settings on record: [3H]cAMP 47 nM; enzyme 0.25 nM; read-out: PDE 1A IC50 (nM) ± SD (n = number of runs).
Excerpt: as §1, §2
(§4) PDE1B, PDE1A, and PDE1C are cloned and purified following standard protein generation procedures. The assay buffer is prepared to give a final concentration in the assay of 50 mM Tris-HCl, 50 mM MgC2, 4 mM CaCl2, 0.1% Bovine serum albumin and 6 U/ml Calmodulin in water, at pH 7.5. The final enzyme concentration is 0.25, 0.074 and 0.0012 nM, for PDE1A, PDE1B and PDE1C respectively. The reactions are started by addition of the substrate, [^3H]cAMP, to give a final concentration of 47 nM.

Another test has as its target human PDE1C (Homo sapiens (Human), UniProt Q14123). Put plainly: Ca2+ calmodulin dependent PDE enzyme assay (SPA, [3H]cAMP), PDE1C. Particulars: [3H]cAMP 47 nM; enzyme 0.0012 nM; read-out: PDE 1C IC50 (nM) ± SD (n = number of runs).
Excerpt: as §1, §2, §4

In the next test the target is human PDE1B (Homo sapiens (Human), UniProt Q01064). Put plainly: Ca2+ calmodulin dependent PDE enzyme assay (SPA, [3H]cAMP), PDE1B. Particulars: [3H]cAMP 47 nM; enzyme 0.074 nM; read-out: PDE 1B IC50 (nM) ± SD (n = number of runs).
Excerpt: as §1, §2, §4

The next test deals with human PDE4D (Homo sapiens (Human), UniProt Q08499). Put plainly: PDE enzyme assay using [3H]cAMP as substrate, PDE4D. The settings on record: [3H]cAMP 47 nM; enzyme 0.021 nM; read-out: PDE 4D IC50 (μm) ± SD (n = number of runs).
Excerpt: as §1, §2, §3

Sequence of human PDE6A/6B (P16499 whole entry, the tested form may be a part): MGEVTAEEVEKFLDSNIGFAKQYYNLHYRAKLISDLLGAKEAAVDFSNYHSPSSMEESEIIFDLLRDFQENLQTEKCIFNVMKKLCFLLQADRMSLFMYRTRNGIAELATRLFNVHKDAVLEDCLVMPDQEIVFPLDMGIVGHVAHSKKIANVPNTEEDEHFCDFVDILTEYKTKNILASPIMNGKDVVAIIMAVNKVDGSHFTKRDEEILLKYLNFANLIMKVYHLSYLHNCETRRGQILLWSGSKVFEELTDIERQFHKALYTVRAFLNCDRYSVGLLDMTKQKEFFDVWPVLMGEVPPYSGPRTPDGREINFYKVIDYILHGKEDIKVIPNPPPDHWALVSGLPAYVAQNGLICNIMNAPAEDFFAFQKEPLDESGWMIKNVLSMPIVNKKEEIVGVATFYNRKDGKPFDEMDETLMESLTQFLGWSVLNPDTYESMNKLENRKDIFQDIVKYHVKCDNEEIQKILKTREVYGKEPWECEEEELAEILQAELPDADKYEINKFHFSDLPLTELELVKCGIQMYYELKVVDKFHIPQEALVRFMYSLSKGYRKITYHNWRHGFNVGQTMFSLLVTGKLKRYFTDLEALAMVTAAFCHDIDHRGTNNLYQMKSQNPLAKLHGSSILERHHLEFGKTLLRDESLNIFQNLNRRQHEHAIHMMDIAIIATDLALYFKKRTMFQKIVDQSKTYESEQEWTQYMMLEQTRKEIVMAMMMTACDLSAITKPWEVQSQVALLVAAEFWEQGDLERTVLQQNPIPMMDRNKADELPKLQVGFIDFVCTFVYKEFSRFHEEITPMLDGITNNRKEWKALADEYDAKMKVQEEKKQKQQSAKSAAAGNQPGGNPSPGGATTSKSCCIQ
Sequence of human PDE6A/6B (P35913 other isoform, or with tags, fused parts or gaps): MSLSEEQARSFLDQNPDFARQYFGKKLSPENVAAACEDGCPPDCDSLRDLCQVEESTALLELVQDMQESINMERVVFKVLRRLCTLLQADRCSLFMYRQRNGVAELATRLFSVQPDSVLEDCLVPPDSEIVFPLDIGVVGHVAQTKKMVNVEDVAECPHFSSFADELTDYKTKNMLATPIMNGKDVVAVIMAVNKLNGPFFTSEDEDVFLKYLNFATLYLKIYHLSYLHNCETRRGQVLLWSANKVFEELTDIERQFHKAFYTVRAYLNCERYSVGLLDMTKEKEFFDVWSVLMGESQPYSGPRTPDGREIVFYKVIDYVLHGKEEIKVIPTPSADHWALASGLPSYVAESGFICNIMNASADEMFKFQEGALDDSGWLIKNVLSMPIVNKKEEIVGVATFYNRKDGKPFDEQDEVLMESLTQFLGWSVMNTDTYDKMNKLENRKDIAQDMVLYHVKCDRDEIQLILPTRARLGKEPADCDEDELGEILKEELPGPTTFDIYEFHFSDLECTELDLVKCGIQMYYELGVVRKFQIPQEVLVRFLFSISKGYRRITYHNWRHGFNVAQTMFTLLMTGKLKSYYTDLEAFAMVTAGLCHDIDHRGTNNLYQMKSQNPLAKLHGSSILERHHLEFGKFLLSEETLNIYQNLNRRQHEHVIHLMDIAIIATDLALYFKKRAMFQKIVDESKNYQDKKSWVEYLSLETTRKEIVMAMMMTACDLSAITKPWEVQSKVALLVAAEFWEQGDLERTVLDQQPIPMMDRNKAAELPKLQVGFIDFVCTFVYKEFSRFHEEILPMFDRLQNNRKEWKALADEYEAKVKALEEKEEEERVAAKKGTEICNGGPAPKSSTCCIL
Sequence of human PDE3A (catalytic domain) (Q14432 641-1141): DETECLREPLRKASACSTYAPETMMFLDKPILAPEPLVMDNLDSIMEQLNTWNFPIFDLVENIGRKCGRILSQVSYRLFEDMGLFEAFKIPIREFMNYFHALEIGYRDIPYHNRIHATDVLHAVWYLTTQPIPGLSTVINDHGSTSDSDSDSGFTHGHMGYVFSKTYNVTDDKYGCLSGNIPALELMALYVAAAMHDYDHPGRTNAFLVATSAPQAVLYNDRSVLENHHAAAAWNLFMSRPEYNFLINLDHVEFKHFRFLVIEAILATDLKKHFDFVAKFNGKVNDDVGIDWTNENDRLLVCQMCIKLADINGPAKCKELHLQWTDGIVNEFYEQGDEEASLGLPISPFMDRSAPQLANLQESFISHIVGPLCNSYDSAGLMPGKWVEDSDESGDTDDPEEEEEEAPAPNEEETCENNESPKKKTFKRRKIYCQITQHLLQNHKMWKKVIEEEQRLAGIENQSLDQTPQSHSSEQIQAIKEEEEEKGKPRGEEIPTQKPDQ
Sequence of human PDE4D (Q08499 other isoform, or with tags, fused parts or gaps): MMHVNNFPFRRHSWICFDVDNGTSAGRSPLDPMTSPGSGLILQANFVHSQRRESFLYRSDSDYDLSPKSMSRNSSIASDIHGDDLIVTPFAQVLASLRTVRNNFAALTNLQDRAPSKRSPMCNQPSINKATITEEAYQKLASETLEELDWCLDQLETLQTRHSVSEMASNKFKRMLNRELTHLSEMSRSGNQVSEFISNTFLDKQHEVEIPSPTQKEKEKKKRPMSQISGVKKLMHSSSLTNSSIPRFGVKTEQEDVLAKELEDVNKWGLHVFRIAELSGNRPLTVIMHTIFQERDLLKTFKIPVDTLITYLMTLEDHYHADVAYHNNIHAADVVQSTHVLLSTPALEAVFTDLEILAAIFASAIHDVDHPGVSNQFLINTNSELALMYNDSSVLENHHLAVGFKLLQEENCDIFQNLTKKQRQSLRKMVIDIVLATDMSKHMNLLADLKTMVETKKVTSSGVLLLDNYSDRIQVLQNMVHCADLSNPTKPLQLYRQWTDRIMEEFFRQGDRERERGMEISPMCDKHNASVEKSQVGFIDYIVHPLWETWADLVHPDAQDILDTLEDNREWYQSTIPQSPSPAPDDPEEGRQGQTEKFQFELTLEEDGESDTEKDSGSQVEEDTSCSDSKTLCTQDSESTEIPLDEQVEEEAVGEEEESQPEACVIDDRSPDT

As to `CCCn1c2c(n3c(C4(C5CC5)CC4)nnc3c1=O)CCCC2` [Example 1, 1-([1,1′-bi(cyclopropan)]-1-yl)-5-propyl-6,7,8,9-tetrahydro-[1,2,4]triazolo[4,3-a]quinoxalin-4(5H)-one], the IC50 on human PDE6A/6B was more than 10 µM; in test [1], more than 100000 nM; on human PDE1A it was 2.9 ± 1.9 nM; on human PDE1C, 2.6 ± 3.3 nM; at human PDE1B, 3.1 nM; on human PDE4D, 12700 nM.

Regarding `CCCCn1c2c(n3c(C4(C5CC5)CC4)nnc3c1=O)CCCC2` [Example 2, 1-([1,1′-bi(cyclopropan)]-1-yl)-5-butyl-6,7,8,9-tetrahydro-[1,2,4]triazolo[4,3-a]quinoxalin-4(5H)-one], the IC50 on human PDE6A/6B is more than 10 µM; in test [1], more than 100000 nM; on human PDE1A, 3 ± 2.1 nM; at human PDE1C, 1.4 ± 0.9 nM; on human PDE1B it was 4.1 nM; on human PDE4D, 13200 ± 2500 nM.

In the case of `O=c1c2nnc(C3(C4CC4)CC3)n2c2c(n1CC1CC1)CCOC2` [Example 3, 1-([1,1′-bi(cyclopropan)]-1-yl)-5-(cyclopropylmethyl)-5,6,7,9-tetrahydro-4H-pyrano[4,3-e][1,2,4]triazolo[4,3-a]pyrazin-4-one], the IC50 on human PDE6A/6B is more than 10 µM; in test [1] it was more than 100000 nM; at human PDE1A, 9.8 ± 2.2 nM; at human PDE1C, 5.2 ± 0.6 nM; at human PDE1B it was 8.7 nM; on human PDE4D, 16400 ± 300 nM.

Consider `CCCCn1c2c(n3c(C4(C5CC5)CC4)nnc3c1=O)COCC2` [Example 4, 1-([1,1′-bi(cyclopropan)]-1-yl)-5-butyl-5,6,7,9-tetrahydro-4H-pyrano[4,3-e][1,2,4]triazolo[4,3-a]pyrazin-4-one], for which the IC50 at human PDE6A/6B was more than 10 µM; in test [1], more than 100000 nM; on human PDE1A, 6.3 ± 0.4 nM; at human PDE1C it was 1.5 ± 0.5 nM; at human PDE1B, 7.8 nM; on human PDE4D, 21800 nM.

On to `O=c1c2nnc(C3(C4CC4)CC3)n2c2c(n1CC1CCC1)CCOC2` [Example 5, 1-([1,1′-bi(cyclopropan)]-1-yl)-5-(cyclobutylmethyl)-5,6,7,9-tetrahydro-4H-pyrano[4,3-e][1,2,4]triazolo[4,3-a]pyrazin-4-one], for which the half-maximal inhibitory concentration (IC50) was more than 10 µM at human PDE6A/6B; more than 100000 nM in test [1]; 5.8 ± 2.3 nM at human PDE1A; 1.9 ± 0.4 nM at human PDE1C; 4.2 nM at human PDE1B; 19200 nM at human PDE4D.

For `O=c1c2nnc(C3(C4CC4)CC3)n2c2c(n1CC1CC1)COCC2` [Example 6, 1-(1-cyclopropylcyclopropyl)-5-(cyclopropylmethyl)-3-oxo-7,8-dihydro-5H-pyrano-[1,2,4]triazolo[4,3-a]quinoxalin-4-one], the IC50 on human PDE6A/6B is more than 10 µM; in test [1] it was more than 100000 nM; on human PDE1A it was 8.4 ± 3.8 nM; at human PDE1C, 7.6 ± 1.9 nM; at human PDE1B, 14.9 nM; at human PDE4D, 39200 ± 16500 nM.

Take `CCCCn1c2c(n3c(C4(C5CC5)CC4)nnc3c1=O)CCOC2` [Example 7, 1-([1,1′-bi(cyclopropan)]-1-yl)-5-butyl-8,9-dihydro-6H-pyrano[3,4-e][1,2,4]triazolo[4,3-a]pyrazin-4(5H)-one]: the half-maximal inhibitory concentration (IC50) is more than 10 µM at human PDE6A/6B; more than 100000 nM in test [1]; 5.2 ± 2 nM on human PDE1A; 2 ± 0.1 nM at human PDE1C; 12 nM on human PDE1B; more than 100000 nM at human PDE4D.

Take `O=c1c2nnc(C3(C4CC4)CC3)n2c2c(n1CC1CC1)CCCCC2` [Example 8, 1-([1,1′-bi(cyclopropan)]-1-yl)-5-(cyclopropylmethyl)-5,6,7,8,9,10-hexahydro-4H-cyclohepta[e][1,2,4]triazolo[4,3-a]pyrazin-4-one]: the 50% inhibitory concentration (IC50) at human PDE6A/6B was more than 10 µM; in test [1], more than 100000 nM; at human PDE1A it was 6.5 ± 2.6 nM; at human PDE1C, 4.7 ± 1.4 nM; at human PDE1B it was 6.6 nM; at human PDE4D, 12100 nM.
